The text below walks through data of patent publication US12714657B2, “Magnolia extract containing compositions” (MARY KAY INC., priority 2007, dated 2026).

SMILES strings stand for the structures.

One test has as its system Human melanocytes. In words: Melanin production assay in melanocytes. The test is classed as cell-based. As to conditions: 6 days. How it is done: Materials and Methods: Human melanocytes from a moderately pigmented donor were purchased from Cascade Biologics (Portland, Oregon). Human dermal fibroblasts were purchased from Cambrex (Rockland, ME). In order to determine the optimal concentrations of the test materials for the whitening experiment, these materials were first examined in a proliferation assay with human dermal fibroblasts. The highest non-interfering concentration was determined for each test material and further 5-fold dilutions were made for use in melanocytes cultures. The following assay was used to the effects of the materials on melanin production. Melanocytes were seeded in the fully-supplemented 254 medium (Cascade) in 96 well plates and test materials were added 24 h later. Cells were grown for 6 days with one growth medium change. At the end of the experiment, cells were lysed with the Cellytic Mammalian Cell Lysis/Extraction Reagent (Sigma, St. Louis, MO) and melanin was solubilized in 2N NaOH. Melanin content was determined spectrophotometrically at 405 nm and standardized to total protein content from the same cultures, using Bradford reagent (Sigma, St. Louis, MO). Kojic acid was used as positive control. Cell cultures were monitored on a Nikon Eclipse inverted microscope.

In another test the test system is Mushroom Tyrosinase. In words: Tyrosinase activity, modified Pomerantz method. Format: biochemical. As to conditions: H20 = 100.0. On the procedure:
Tyrosinase activity was measured by the modified Pomerantz method (Biophys Res Commun, 1964). Mushroom Tyrosinase (Sigma #3212816630) stock enzyme was 5 U/well (25 U/ml). The substrate (I-DOPA, Fisher Scientific, Pittsburgh, PA) stock solution was 20 mM. Working solution was prepared in PBS for each assay. The reaction mixture consisted of 50 μl 20 mM I-DOPA and 10 μl undiluted test sample. Reaction was initiated by adding tyrosinase. Assays were preformed in 96 well flat-bottom microtiter plates (Fisher #0720087) and read at 490 nm after 5, 10, and 20 min.

As to `O=C1O[C@H]([C@@H](O)CO)C(O)=C1O[C@H]1O[C@H](CO)[C@@H](O)[C@H](O)[C@H]1O` [Ascorbyl Glucoside, Ascorbyl glucoside], the “Melanin content (% of water control)” value with Human melanocytes (Dilution Factor 1/25-1/125, H20 = 100%) was 75-65.5%. Further, the figures for the “Tyrosinase activity, % of water control” value in the test with Mushroom Tyrosinase (read at 490 nm after 5 min), with Mushroom Tyrosinase (read at 490 nm after 10 min) and with Mushroom Tyrosinase (read at 490 nm after 20 min) were 33.8, 30.6 and 30.1, respectively.
`O=c1cc(CO)occ1O` [Kojic acid]: in the test with Human melanocytes (Melanocyte, 144 h, 200 μM, H20 = 100%, read-out: Melanin Inhibition in Cells), the activity at 200 µM turned out to be 83%. The “Tyrosinase activity, % of water control” value is recorded as 39.0 with Mushroom Tyrosinase (read at 490 nm after 5 min), 35.5 in the test with Mushroom Tyrosinase (read at 490 nm after 10 min) and 33.1 in the test on Mushroom Tyrosinase (read at 490 nm after 20 min).
